Assay results: patent publication US7183260B2, “C-terminal modified oxamyl dipeptides as inhibitors of the ICE/ced-3 family of cysteine proteases” (Idun Pharmaceuticals, Inc., priority 1998, dated 2007)

Legend:
Format in all cases: biochemical
Conditions in all cases: continuous assay 60 min, reaction initiated by adding enzyme to substrate-inhibitor mixture
[1] = target: MCH-5 (Homo sapiens, UniProt Q14790); assay: Dissociation constant Ki and irreversible rate constant k3 for irreversible inhibitors (Mch5)
[2] = target: T1, MCH-2 (Homo sapiens, UniProt P55212); assay: Dissociation constant Ki and irreversible rate constant k3 for irreversible inhibitors (Mch2)
T1 sequence (P55212 24-179 limits assumed): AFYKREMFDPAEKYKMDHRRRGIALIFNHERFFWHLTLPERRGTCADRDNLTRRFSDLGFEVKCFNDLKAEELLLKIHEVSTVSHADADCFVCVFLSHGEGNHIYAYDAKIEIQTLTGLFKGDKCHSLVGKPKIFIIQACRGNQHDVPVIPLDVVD
T1 sequence (P55212 194-293 limits assumed): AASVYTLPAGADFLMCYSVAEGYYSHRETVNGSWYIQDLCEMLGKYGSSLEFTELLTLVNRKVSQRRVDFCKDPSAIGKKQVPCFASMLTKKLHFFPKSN

[3] = target: T2, CPP32 (Homo sapiens, UniProt P42574); assay: Dissociation constant Ki and irreversible rate constant k3 for irreversible inhibitors (CPP32)
T2 sequence (P42574 29-175 limits assumed): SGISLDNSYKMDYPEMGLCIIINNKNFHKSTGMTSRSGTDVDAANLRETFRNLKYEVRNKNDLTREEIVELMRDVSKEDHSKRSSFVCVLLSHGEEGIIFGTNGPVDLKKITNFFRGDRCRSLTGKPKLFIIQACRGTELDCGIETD
T2 sequence (P42574 176-277 limits assumed): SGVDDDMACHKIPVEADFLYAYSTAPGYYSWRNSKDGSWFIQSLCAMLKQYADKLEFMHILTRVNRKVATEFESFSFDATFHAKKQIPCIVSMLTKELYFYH

[4] = target: T3, mICE (Mus musculus, UniProt P29452); assay: Dissociation constant Ki and irreversible rate constant k3 for irreversible inhibitors (ICE)
T3 sequence (P29452 123-296 limits assumed): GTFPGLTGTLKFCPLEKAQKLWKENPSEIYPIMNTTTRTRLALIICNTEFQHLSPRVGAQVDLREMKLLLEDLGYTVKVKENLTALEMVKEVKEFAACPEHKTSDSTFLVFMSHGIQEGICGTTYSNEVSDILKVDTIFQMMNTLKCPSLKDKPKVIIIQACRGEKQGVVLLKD
T3 sequence (P29452 315-402 limits assumed): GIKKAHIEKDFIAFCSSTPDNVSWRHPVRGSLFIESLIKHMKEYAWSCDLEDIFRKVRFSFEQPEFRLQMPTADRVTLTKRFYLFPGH

MCH-5, sequence (Q14790 217-374 limits assumed, species assumed): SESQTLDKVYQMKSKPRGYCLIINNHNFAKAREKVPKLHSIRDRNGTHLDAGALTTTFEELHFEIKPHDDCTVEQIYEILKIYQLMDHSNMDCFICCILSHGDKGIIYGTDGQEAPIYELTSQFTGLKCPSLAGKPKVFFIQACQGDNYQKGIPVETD
MCH-5, sequence (Q14790 385-479 limits assumed, species assumed): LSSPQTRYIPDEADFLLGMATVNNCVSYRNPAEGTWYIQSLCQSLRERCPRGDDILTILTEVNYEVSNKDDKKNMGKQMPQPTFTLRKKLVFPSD

Compound	Ki [1] [nM]	MCH-5 k3/Ki [1]	Ki [2] [nM]	MCH-2 k3/Ki [2]	CPP32 k3/Ki [3]	Ki [3] [nM]	Ki [4] [nM]	mICE k3/Ki [4]
CC(C)[C@H](NC(=O)C(=O)Nc1ccccc1Cc1ccccc1)C(=O)N[C@@H](CC(=O)O)C(=O)COc1c(F)c(F)cc(F)c1F [Example 84]	24	105,000 moles^−1 seconds^−1	82	25,300 moles^−1 seconds^−1	54,800 moles^−1 seconds^−1	367	43	344,000 moles^−1 seconds^−1
C[C@H](NC(=O)C(=O)Nc1ccccc1F)C(=O)N[C@@H](CC(=O)O)C(=O)COC(=O)c1c(Cl)cccc1Cl [Example 39]	40	155,000 moles^−1 seconds^−1	23	129,000 moles^−1 seconds^−1	68,900 moles^−1 seconds^−1	202	116	172,000 moles^−1 seconds^−1
C[C@H](NC(=O)C(=O)Nc1ccc(F)cc1)C(=O)N[C@@H](CC(=O)O)C(=O)COP(=O)(c1ccccc1)c1ccccc1 [Example 43]	3.6	2,300,000 moles^−1 seconds^−1	9	424,000 moles^−1 seconds^−1	268,000 moles^−1 seconds^−1	52	13	956,000 moles^−1 seconds^−1
CC(C)[C@H](NC(=O)C(=O)Nc1ccccc1I)C(=O)N[C@@H](CC(=O)O)C(=O)COc1c(F)c(F)cc(F)c1F [Example 107]	4	1,026,000 moles^−1 seconds^−1	20	137,000 moles^−1 seconds^−1	42,300 moles^−1 seconds^−1	510	7	1,260,000 moles^−1 seconds^−1
CC(C)[C@H](NC(=O)C(=O)Nc1cnccn1)C(=O)N[C@@H](CC(=O)O)C(=O)COc1c(F)c(F)cc(F)c1F [Example 103]	4.7		17			60	5.3	
C[C@H](NC(=O)C(=O)Nc1cccc2c1CCCC2)C(=O)N[C@@H](CC(=O)O)C(=O)COc1c(F)c(F)cc(F)c1F [Example 50]	74	46,200 moles^−1 seconds^−1	72	64,100 moles^−1 seconds^−1	118,000 moles^−1 seconds^−1	129	640	22,000 moles^−1 seconds^−1
COC(=O)c1cc(OCC(=O)[C@H](CC(=O)O)NC(=O)[C@@H](NC(=O)C(=O)Nc2cccc3ccccc23)C(C)C)no1 [Example 13]	23		96			67	24	
CC(C)[C@H](NC(=O)C(=O)Nc1ccc(F)cc1)C(=O)N[C@@H](CC(=O)O)C(=O)COc1c(F)c(F)cc(F)c1F [Example 91]	15	338,000 moles^−1 seconds^−1	59	121,000 moles^−1 seconds^−1	36,300 moles^−1 seconds^−1	758	16	906,000 moles^−1 seconds^−1
C[C@H](NC(=O)C(=O)Nc1ccccc1C(C)(C)C)C(=O)N[C@@H](CC(=O)O)C(=O)COc1ccccc1F [Example 31]	45	119,000 moles^−1 seconds^−1	71	54,900 moles^−1 seconds^−1	67,700 moles^−1 seconds^−1	60	31	442,000 moles^−1 seconds^−1
CC(C)[C@H](NC(=O)C(=O)Nc1cccc2ccccc12)C(=O)N[C@@H](CC(=O)O)C(=O)COc1ccnc(C(F)(F)F)n1 [Example 12]	12		95			64	7.2	
C[C@H](NC(=O)C(=O)NC1CCCCC1)C(=O)N[C@@H](CC(=O)O)C(=O)COP(=O)(c1ccccc1)c1ccccc1 [Example 56]	2.5	1,790,000 moles^−1 seconds^−1	25	97,500 moles^−1 seconds^−1	137,000 moles^−1 seconds^−1	96	5.3	2,032,000 moles^−1 seconds^−1
